Key:
Type in all cases: cell-based, human
[1] = test system: Hah (hippocampus astrocyte cells); experiment: Micronuclei per 100 cells 24 h after contacting, Hah
Method: (§1) In one embodiment, on receipt, the tissue sample (typically the biopsy) is established in the form of an amplifiable cell line without a viral or chemical transformation agent according to an ancillary procedure well known to culture laboratories, as underlined by the publication of Elkind et al. “The radiobiology of cultured mammalian cell”, Gordon and Breach (1967). Once the number of cells is sufficient (typically after 1 to 3 weeks), the first experiments are carried out using the process according to the invention. A cell sample is prepared: The cells are inoculated on glass coverslips in Petri dishes. A portion of these coverslips are contaminated with metals or pesticides or any other DNA-breaking chemical or biochemical agent at different concentrations. A further portion is not contaminated; it represents the spontaneous state. During contamination, the cells remain in the culture incubator at 37° C.
(§2) the cells are fixed in 3% paraformaldehyde and 2% sucrose for 15 minutes at ambient temperature and permeabilized in 20 mM HEPES buffer solution (4-(2-hydroxyethyl)-1-piperazine ethane sulfonic acid) at pH 7.4, 50 mM NaCl, 3 mM MgCl2, 300 mM sucrose, 0.5% Triton X-100 (a non-ionic surfactant having the formula t-Oct-C6H4-(OCH2CH2)×OH where x=9-10, CAS No. 9002-93-1, supplied for example by Sigma Aldrich) for 3 minutes. The glass coverslips are then washed in phosphate buffer saline (known as the acronym PBS) before immunological staining. The incubation took place for 40 min at 37° C. in PBS supplemented with 2% bovine serum albumin (known as the acronym BSA or fraction V, supplied for example by Sigma Aldrich) and was followed by a wash with PBS. Anti-pH2AX primary antibodies are used at a concentration of 1:800. The incubations with anti-mouse FITC or anti-rabbit TRITC secondary antibodies (1:100, supplied by Sigma Aldrich) were performed at 37° C. in 2% BSA for 20 minutes. Glass coverslips were treated with Vectashield™ containing DAPI (4,6-Diamidino-2-phenylindole) to label the nucleus. Staining with DAPI also makes it possible, indirectly, to determine the number of cells in phase G1 (nuclei with homogenous DAPI staining), in phase S (nuclei with numerous pH2AX foci), in phase G2 (nuclei with heterogeneous DAPI staining) and metaphases (visible chromosomes).
(§3) Counterstaining with DAPI (a DNA marker known to those skilled in the art) makes it possible to locate the nucleus to situate the cytoplasmic or nuclear location to quantify the micronuclei, which are complementary cell markers to the data on the foci.
(§4) The tables hereinafter summarize the results of numerous experiments which were carried out as described in the “Detailed description” section above.
(§5) In tables 3 and 4, “pH2AX” corresponds to the mean number of nuclear foci obtained with the marker pH2AX, 24 hours after contacting the cell sample with the chemical agent at the concentration C (NpH2AX(24 h, C)), and where “Micronuclei” corresponds to the mean number of micronuclei observed per 100 cells 24 hours after contacting the cell sample with the chemical agent at the concentration C(NMN(24 h, C)).
(§6) Table 4 presents a detection of number of pH2AX foci and number of micronuclei 24 hours after contacting control nervous system cell lines Ha (astrocyte cells), Hah (hippocampus astrocyte cells) and Hasp (spinal cord astrocyte cells) with a metallic compound (AlCl3, Cu, CuCl2, CuSO4, Pb(NO3)2, CdCl2, Cd-acetate or Cd-acetate-citrate) according to the concentration of said metallic compound used.

HMEC cells [2] = experiment: pH2AX foci 24 h after contacting, Table 4 lower part (HMEC endothelial cells); conditions: for pH2AX: line cell blank (below Hasp), 24 hours after contacting
Method: as §1
(§7) For the contaminated cells, characteristics are acquired corresponding to the state after an incubation time with the DNA-breaking chemical or biochemical agent. Said characteristics are represented by foci corresponding to the marker pH2AX. The cells on glass coverslips are then fixed, lysed and hybridized. The following procedure, known per se (Bodgi et al, “A single formula to describe radiation-induced protein relocalization: towards a mathematical definition of individual radiosensitivity”, J Theor Biol. 21 p 333:135-45.2013):
as §2
(§8) The results are acquired using these coverslips on an immunofluorescence microscope (Olympus model for example). The reading may be direct (typically by counting the foci on at least 50 cells in G0/G1 for each point) or using dedicated image analysis software, or on an automated microscope; preferably the software or automated microscope methods are calibrated with manual determinations.
as §4, §5

[3] = test system: Hasp (spinal cord astrocyte cells); experiment: Micronuclei per 100 cells 24 h after contacting, Hasp
Method: as §1, §2, §3, §4, §5, §6

[4] = test system: Hah (hippocampus astrocyte cells); experiment: pH2AX foci 24 h after contacting, Hah hippocampus astrocyte cells
Method: as §1, §7, §2, §8, §4
(§9) In tables 3 and 4, “pH2AX” corresponds to the mean number of nuclear foci obtained with the marker pH2AX, 24 hours after contacting the cell sample with the chemical agent at the concentration C (NpH2AX(24 h, C)), and where “Micronuclei” corresponds to the mean number of micronuclei observed per 100 cells 24 hours after contacting the cell sample with the chemical agent at the concentration C(NMN(24 h, C)). […]

Ha (astrocyte cells) [5] = experiment: Micronuclei per 100 cells 24 h after contacting, Ha astrocyte cells
Method: as §1, §2, §3, §4, §5, §6

HMEC cells [6] = experiment: Micronuclei per 100 cells 24 h after contacting, Table 4 lower part (HMEC); conditions: line cell blank (below Hasp)
Method: as §1, §2, §3, §4, §5

Ha (astrocyte cells) [7] = experiment: pH2AX foci 24 h after contacting, Ha astrocyte cells; conditions: for pH2AX: Ha, 24 hours after contacting
Method: as §1, §7, §2, §8, §4, §9

[8] = test system: Hasp (spinal cord astrocyte cells); experiment: pH2AX foci 24 h after contacting, Hasp spinal cord astrocyte cells
Method: as §1, §7, §2, §8, §4, §9

1BR3 cells = experiment: Micronuclei per 100 cells 24 h after contacting, 1BR3
Method: as §1, §2, §3, §4, §5

1BR3 (control cells) = experiment: pH2AX foci immunofluorescence 24 h after contacting, 1BR3 control fibroblasts; conditions: 1BR3, 24 hours after contacting (Table 3)
Method: as §1, §7, §2, §8
Commercial 1BR3 and 149 BR control fibroblasts were amplified according to the recommendations of the supplier (SIGMA-ALDRICH) until the number of cells sought was obtained. After obtaining a sufficient number of cells (generally after one to 3 weeks), the first experiments were conducted using the process according to the invention. The cells were inoculated on glass coverslips in Petri dishes.
The acquisition of the results was carried out using these coverslips on an immunofluorescence microscope (Olympus model). The reading was performed directly by counting the foci obtained with the marker pH2AX on at least 50 cells in G0/G1 for each point or using dedicated image analysis software (imageJ). […]

[Cl][Al]([Cl])[Cl] [AlCl3] gave a Micronuclei ([1]; 3 μM) of 2 per 100 cells, a Micronuclei ([1]; 10 μM) of 2 per 100 cells and a Micronuclei ([1]; 30 μM) of 4 per 100 cells. It also gave a Micronuclei ([1]; 100 μM) of 6 per 100 cells, a Micronuclei ([1]; 300 μM) of 20 per 100 cells and a Micronuclei ([1]; 1000 μM) of 30 per 100 cells. It also gave an H2AX foci (HMEC cells [2]; endothelial cells (HMEC cells), 100 μM) of 3.7 foci, a pH2AX (HMEC cells [2]; 3 μM) of 3.2 foci and a pH2AX (HMEC cells [2]; 10 μM) of 3.2 foci. It also gave a pH2AX (HMEC cells [2]; 30 μM) of 5.7 foci, a pH2AX (HMEC cells [2]; 100 μM) of 3.7 foci and a pH2AX (HMEC cells [2]; 300 μM) of 4.5 foci. It also gave a pH2AX (HMEC cells [2]; 1000 μM) of 9.9 foci, a Micronuclei ([3]; 3 μM) of 2 per 100 cells and a Micronuclei ([3]; 10 μM) of 4 per 100 cells. For the same compound, the Micronuclei ([3]; 30 μM) was 4 per 100 cells, the Micronuclei ([3]; 100 μM) was 7.3 per 100 cells and the Micronuclei ([3]; 300 μM) was 8.7 per 100 cells. For the same compound, the Micronuclei ([3]; 1000 μM) was 13 per 100 cells, the pH2AX ([4]; 3 μM) was 0.07 foci and the pH2AX ([4]; 10 μM) was 0.68 foci. It also gave a pH2AX ([4]; 30 μM) of 0.83 foci, a pH2AX ([4]; 100 μM) of 1.22 foci and a pH2AX ([4]; 300 μM) of 1.77 foci. The pH2AX ([4]; 1000 μM) was 2.28 foci, the Micronuclei (Ha (astrocyte cells) [5]; 3 μM) was 10 per 100 cells and the Micronuclei (Ha (astrocyte cells) [5]; 10 μM) was 15 per 100 cells. The Micronuclei (Ha (astrocyte cells) [5]; 30 μM) was 16.7 per 100 cells, the Micronuclei (Ha (astrocyte cells) [5]; 100 μM) was 46.7 per 100 cells and the Micronuclei (Ha (astrocyte cells) [5]; 300 μM) was 56.7 per 100 cells. For the same compound, the Micronuclei (Ha (astrocyte cells) [5]; 1000 μM) was 70 per 100 cells, the Micronuclei (HMEC cells [6]; 3 μM) was 1.75 per 100 cells and the Micronuclei (HMEC cells [6]; 10 μM) was 3.75 per 100 cells. For the same compound, the Micronuclei (HMEC cells [6]; 30 μM) was 5 per 100 cells, the Micronuclei (HMEC cells [6]; 100 μM) was 4.33 per 100 cells and the Micronuclei (HMEC cells [6]; 300 μM) was 7.33 per 100 cells. For the same compound, the Micronuclei (HMEC cells [6]; 1000 μM) was 11.5 per 100 cells, the pH2AX (Ha (astrocyte cells) [7]; 3 μM) was 0.34 foci and the pH2AX (Ha (astrocyte cells) [7]; 10 μM) was 0.88 foci. The pH2AX (Ha (astrocyte cells) [7]; 30 μM) was 1.37 foci, the pH2AX (Ha (astrocyte cells) [7]; 100 μM) was 2.18 foci and the pH2AX (Ha (astrocyte cells) [7]; 300 μM) was 2.96 foci. The pH2AX (Ha (astrocyte cells) [7]; 1000 μM) was 6.04 foci, the H2AX foci (Ha (astrocyte cells) [7]; astrocytes (HA cells) contaminated with 100 μM) was 2 foci and the pH2AX ([8]; 3 μM) was 0.84 foci. It also gave a pH2AX ([8]; 10 μM) of 0.46 foci, a pH2AX ([8]; 30 μM) of 0.74 foci and a pH2AX ([8]; 100 μM) of 2.15 foci. It also gave a pH2AX ([8]; 300 μM) of 1.7 foci and a pH2AX ([8]; 1000 μM) of 1.62 foci.
CCNc1nc(Cl)nc(NC(C)C)n1 [Atrazine] was tested, and the Micronuclei (1BR3 cells; 0.01 μM) was 5 per 100 cells, the Micronuclei (1BR3 cells; 0.1 μM) was 6 per 100 cells and the Micronuclei (1BR3 cells; 1 μM) was 13.5 per 100 cells. For the same compound, the Micronuclei (1BR3 cells; 10 μM) was 15 per 100 cells, the Micronuclei (1BR3 cells; 20 μM) was 40 per 100 cells and the pH2AX (1BR3 (control cells); 0.01 μM) was 1 foci. It also gave a pH2AX (1BR3 (control cells); 0.1 μM) of 1.3 foci, a pH2AX (1BR3 (control cells); 0.3 μM) of 1.8 foci and a pH2AX (1BR3 (control cells); 10 μM) of 3.1 foci. The pH2AX (1BR3 (control cells); 30 μM) was 3.5 foci.
For Oc1c(Cl)c(Cl)c(Cl)c(Cl)c1Cl [PCP], the Micronuclei (1BR3 cells; 0.3 μM) was 2 per 100 cells, the Micronuclei (1BR3 cells; 3 μM) was 4 per 100 cells and the Micronuclei (1BR3 cells; 10 μM) was 10 per 100 cells. It also gave a Micronuclei (1BR3 cells; 50 μM) of 10 per 100 cells, a Micronuclei (1BR3 cells; 100 μM) of 20 per 100 cells and a pH2AX (1BR3 (control cells); 0.3 μM) of 1.2 foci. The pH2AX (1BR3 (control cells); 10 μM) was 1.5 foci, the pH2AX (1BR3 (control cells); 30 μM) was 1.9 foci and the pH2AX (1BR3 (control cells); 100 μM) was 4.3 foci.
